Assay results from US20230406885A1, “CYCLIC PEPTIDES FOR TRAPPING INTERLEUKIN-1 BETA” (MERCK SHARP & DOHME LLC, priority 2022, published 2023).
Where a SMILES comes first, the peptide text is derived from it. [ ]: non-standard residue; d: D form. The star is where a group is joined. Trp(4-Cl)(βS-Me) = C[C@@H](c1c[nH]c2cccc(Cl)c12)[C@H](N)C(=O)O; Bip(4'-COOH) = N[C@@H](Cc1ccc(-c2ccc(C(=O)O)cc2)cc1)C(=O)O; 1Nal(3S-Me) = C[C@@H](c1cccc2ccccc12)[C@H](N)C(=O)O; Phe(4-COOH) = N[C@@H](Cc1ccc(C(=O)O)cc1)C(=O)O; h3Pal(5-CN) = N#Cc1cncc(CC[C@H](N)C(=O)O)c1; Pro(4R-NH2) = N[C@H]1CN[C@H](C(=O)O)C1; 1Nal = N[C@@H](Cc1cccc2ccccc12)C(=O)O; AEF = NCCOc1ccc(C[C@H](N)C(=O)O)cc1; Ethyl(2-morpholino) = C1CN(CC*)CCO1; hTyr = N[C@@H](CCc1ccc(O)cc1)C(=O)O; dDab = NCC[C@@H](N)C(=O)O; Orn = NCCC[C@H](N)C(=O)O; dNMeA = CN[C@H](C)C(=O)O; Dap = NC[C@H](N)C(=O)O; Aib = CC(C)(N)C(=O)O

These compounds were tested against T1, Recombinant human IL-1β (Homo sapiens, UniProt P01584) (assay: IL-6 assay in MRC5 cells: inhibition of IL-1β induced IL-6 secretion (AlphaLISA)). Details: inhibition of IL-1β induced IL-6 secretion in MRC5 cells; read-out: MRC5 IC50.
T1 construct: purchased BioLegend 579404
T1 sequence (P01584 117-269): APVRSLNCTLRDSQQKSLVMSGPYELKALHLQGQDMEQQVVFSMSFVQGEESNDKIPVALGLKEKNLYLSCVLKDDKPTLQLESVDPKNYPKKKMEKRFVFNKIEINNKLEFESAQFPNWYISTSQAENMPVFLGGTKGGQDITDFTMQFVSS
Assay type: cell-based
Method in brief: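 IL-1β at 2×EC80 in seeding medium (EMEM, 0.025% BSA) preincubated 1 h at ambient temperature with compound, then 3000 MRC5 cells/well added and incubated overnight at 37 °C, 5% CO2. IL-6 in conditioned medium quantified by AlphaLISA; IC50 from 4-parameter logistic fit.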
In the case of `CC(=O)NCCOc1ccc(C[C@@H]2NC(=O)[C@H](CCc3ccc(O)cc3)NC(=O)C(C)(C)NC(=O)[C@H](CN)NC(=O)[C@H](Cc3c[nH]c4ccccc34)NC(=O)[C@H](Cc3ccc(-c4ccc(C(=O)O)cc4)cc3)NC(=O)CNC(=O)[C@@H](C)N(C)C(=O)[C@H](CC(=O)O)NC(=O)[C@H]([C@@H](C)c3cccc4ccccc34)NC(=O)[C@@H]3C[C@@H](N)CN3C(=O)CNC(=O)[C@H](Cc3ccc(C(=O)O)cc3)NC(=O)[C@H](Cc3c[nH]c4ccccc34)NC2=O)cc1` [Example 117] (cyclo([AEF](Ac)W[Phe(4-COOH)]G[Pro(4R-NH2)][1Nal(3S-Me)]D[dNMeA]G[Bip(4'-COOH)]W[Dap][Aib][hTyr])), the IC50 is reported as 0.16 nM.
`CC(=O)NCCOc1ccc(C[C@@H]2NC(=O)[C@H](C)NC(=O)[C@@H](C)NC(=O)[C@H](CN)NC(=O)[C@H](Cc3c[nH]c4ccccc34)NC(=O)[C@H](Cc3ccc(-c4ccc(C(=O)O)cc4)cc3)NC(=O)CNC(=O)[C@@H](C)N(C)C(=O)[C@H](CC(=O)O)NC(=O)[C@H]([C@@H](C)c3cccc4ccccc34)NC(=O)[C@@H]3C[C@@H](N)CN3C(=O)CNC(=O)[C@H](Cc3ccc(C(=O)O)cc3)NC(=O)[C@H](Cc3c[nH]c4ccccc34)NC2=O)cc1` [Example 118] (cyclo([AEF](Ac)W[Phe(4-COOH)]G[Pro(4R-NH2)][1Nal(3S-Me)]D[dNMeA]G[Bip(4'-COOH)]W[Dap][dA]A)) gave an IC50 of 0.973 nM.
In the case of `CC(=O)NCCOc1ccc(C[C@@H]2NC(=O)[C@H](CCc3ccc(O)cc3)NC(=O)[C@@H](C)NC(=O)[C@H](CN)NC(=O)[C@H](Cc3c[nH]c4ccccc34)NC(=O)[C@H](Cc3ccc(-c4ccc(C(=O)O)cc4)cc3)NC(=O)CNC(=O)[C@@H](C)N(C)C(=O)[C@H](CC(=O)O)NC(=O)[C@H]([C@@H](C)c3cccc4ccccc34)NC(=O)[C@@H]3C[C@@H](N)CN3C(=O)CNC(=O)[C@H](Cc3ccc(C(=O)O)cc3)NC(=O)[C@H](Cc3c[nH]c4ccccc34)NC2=O)cc1` [Example 119] (cyclo([AEF](Ac)W[Phe(4-COOH)]G[Pro(4R-NH2)][1Nal(3S-Me)]D[dNMeA]G[Bip(4'-COOH)]W[Dap][dA][hTyr])), the IC50 is reported as 0.0602 nM.
`CC(=O)NCCOc1ccc(C[C@@H]2NC(=O)[C@H](Cc3ccc(OCCN4CCOCC4)cc3)NC(=O)[C@@H](C)NC(=O)[C@H](CN)NC(=O)[C@H](Cc3c[nH]c4ccccc34)NC(=O)[C@H](Cc3ccc(-c4ccc(C(=O)O)cc4)cc3)NC(=O)CNC(=O)[C@@H](C)N(C)C(=O)[C@H](CC(=O)O)NC(=O)[C@H]([C@@H](C)c3cccc4ccccc34)NC(=O)[C@@H]3C[C@@H](N)CN3C(=O)CNC(=O)[C@H](Cc3ccc(C(=O)O)cc3)NC(=O)[C@H](Cc3c[nH]c4ccccc34)NC2=O)cc1` [Example 120] (cyclo([AEF](Ac)W[Phe(4-COOH)]G[Pro(4R-NH2)][1Nal(3S-Me)]D[dNMeA]G[Bip(4'-COOH)]W[Dap][dA]Y(Ethyl(2-morpholino)))) gave an IC50 of 0.86 nM.
Work on `CC(=O)NCCOc1ccc(C[C@@H]2NC(=O)[C@H](CCc3ccc(O)cc3)NC(=O)[C@@H](C)N(C)C(=O)[C@H](CN)NC(=O)[C@H](Cc3c[nH]c4ccccc34)NC(=O)[C@H](Cc3ccc(-c4ccc(C(=O)O)cc4)cc3)NC(=O)CNC(=O)[C@@H](C)N(C)C(=O)[C@H](CC(=O)O)NC(=O)[C@H]([C@@H](C)c3cccc4ccccc34)NC(=O)[C@@H]3C[C@@H](N)CN3C(=O)CNC(=O)[C@H](Cc3ccc(C(=O)O)cc3)NC(=O)[C@H](Cc3c[nH]c4ccccc34)NC2=O)cc1` [Example 121] (cyclo([AEF](Ac)W[Phe(4-COOH)]G[Pro(4R-NH2)][1Nal(3S-Me)]D[dNMeA]G[Bip(4'-COOH)]W[Dap][dNMeA][hTyr])) yielded an IC50 of 0.085 nM.
`CC(=O)NCCOc1ccc(C[C@@H]2NC(=O)[C@H](CCc3cncc(C#N)c3)NC(=O)[C@@H](CCN)NC(=O)CNC(=O)[C@H](Cc3c[nH]c4ccccc34)NC(=O)[C@H](Cc3ccc(-c4ccc(C(=O)O)cc4)cc3)NC(=O)CNC(=O)[C@@H](C)N(C)C(=O)[C@H](CC(=O)O)NC(=O)[C@H]([C@@H](C)c3cccc4ccccc34)NC(=O)[C@@H]3C[C@@H](N)CN3C(=O)CNC(=O)[C@H](Cc3ccc(C(=O)O)cc3)NC(=O)[C@H](Cc3c[nH]c4ccccc34)NC2=O)cc1` [Example 122] (cyclo([AEF](Ac)W[Phe(4-COOH)]G[Pro(4R-NH2)][1Nal(3S-Me)]D[dNMeA]G[Bip(4'-COOH)]WG[dDab][h3Pal(5-CN)])) showed an IC50 of 0.0248 nM.
`CC(=O)NCCOc1ccc(C[C@@H]2NC(=O)[C@H](CCc3ccc(O)cc3)NC(=O)[C@@H](CCN)NC(=O)CNC(=O)[C@H](Cc3c[nH]c4ccccc34)NC(=O)[C@H](Cc3ccc(-c4ccc(C(=O)O)cc4)cc3)NC(=O)CNC(=O)[C@@H](C)N(C)C(=O)[C@H](CC(=O)O)NC(=O)[C@H]([C@@H](C)c3cccc4ccccc34)NC(=O)[C@@H]3C[C@@H](N)CN3C(=O)CNC(=O)[C@H](Cc3ccc(C(=O)O)cc3)NC(=O)[C@H](Cc3c[nH]c4ccccc34)NC2=O)cc1` [Example 123] (cyclo([AEF](Ac)W[Phe(4-COOH)]G[Pro(4R-NH2)][1Nal(3S-Me)]D[dNMeA]G[Bip(4'-COOH)]WG[dDab][hTyr])) gave an IC50 of 0.0457 nM.
`CC(=O)NCCOc1ccc(C[C@@H]2NC(=O)[C@H](C)NC(=O)[C@@H](C)NC(=O)[C@H](CC(C)C)NC(=O)[C@H](Cc3c[nH]c4ccccc34)NC(=O)[C@H](Cc3ccc(-c4ccc(C(=O)O)cc4)cc3)NC(=O)CNC(=O)[C@@H](C)N(C)C(=O)[C@H](CC(=O)O)NC(=O)[C@H]([C@@H](C)c3cccc4ccccc34)NC(=O)[C@@H]3C[C@@H](N)CN3C(=O)CNC(=O)[C@H](Cc3ccc(C(=O)O)cc3)NC(=O)[C@H](Cc3c[nH]c4ccccc34)NC2=O)cc1` [Example 124] (cyclo([AEF](Ac)W[Phe(4-COOH)]G[Pro(4R-NH2)][1Nal(3S-Me)]D[dNMeA]G[Bip(4'-COOH)]WL[dA]A)) was tested, and the IC50 was 0.636 nM.
With `CC(=O)NCCOc1ccc(C[C@@H]2NC(=O)[C@H](CCc3ccc(O)cc3)NC(=O)[C@@H](C)NC(=O)[C@H](CC(C)C)NC(=O)[C@H](Cc3c[nH]c4ccccc34)NC(=O)[C@H](Cc3ccc(-c4ccc(C(=O)O)cc4)cc3)NC(=O)CNC(=O)[C@@H](C)N(C)C(=O)[C@H](CC(=O)O)NC(=O)[C@H]([C@@H](C)c3cccc4ccccc34)NC(=O)[C@@H]3C[C@@H](N)CN3C(=O)CNC(=O)[C@H](Cc3ccc(C(=O)O)cc3)NC(=O)[C@H](Cc3c[nH]c4ccccc34)NC2=O)cc1` [Example 125] (cyclo([AEF](Ac)W[Phe(4-COOH)]G[Pro(4R-NH2)][1Nal(3S-Me)]D[dNMeA]G[Bip(4'-COOH)]WL[dA][hTyr])) the IC50 was 0.064 nM.
`CC(=O)NCCOc1ccc(C[C@@H]2NC(=O)[C@H](CCc3ccc(O)cc3)NC(=O)[C@@H](CCN)NC(=O)[C@H](CC(C)C)NC(=O)[C@H](Cc3c[nH]c4ccccc34)NC(=O)[C@H](Cc3ccc(-c4ccc(C(=O)O)cc4)cc3)NC(=O)CNC(=O)[C@@H](C)N(C)C(=O)[C@H](CC(=O)O)NC(=O)[C@H]([C@@H](C)c3cccc4ccccc34)NC(=O)[C@@H]3C[C@@H](N)CN3C(=O)CNC(=O)[C@H](Cc3ccc(C(=O)O)cc3)NC(=O)[C@H](Cc3c[nH]c4ccccc34)NC2=O)cc1` [Example 126] (cyclo([AEF](Ac)W[Phe(4-COOH)]G[Pro(4R-NH2)][1Nal(3S-Me)]D[dNMeA]G[Bip(4'-COOH)]WL[dDab][hTyr])) gave an IC50 of 0.37 nM.
Work on `CC(=O)NCCOc1ccc(C[C@@H]2NC(=O)[C@H](CCc3ccc(O)cc3)NC(=O)C(C)(C)NC(=O)[C@H](CCCN)NC(=O)[C@H](Cc3c[nH]c4ccccc34)NC(=O)[C@H](Cc3ccc(-c4ccc(C(=O)O)cc4)cc3)NC(=O)CNC(=O)[C@@H](C)N(C)C(=O)[C@H](CC(=O)O)NC(=O)[C@H]([C@@H](C)c3cccc4ccccc34)NC(=O)[C@@H]3C[C@@H](N)CN3C(=O)CNC(=O)[C@H](Cc3ccc(C(=O)O)cc3)NC(=O)[C@H](Cc3c[nH]c4ccccc34)NC2=O)cc1` [Example 127] (cyclo([AEF](Ac)W[Phe(4-COOH)]G[Pro(4R-NH2)][1Nal(3S-Me)]D[dNMeA]G[Bip(4'-COOH)]W[Orn][Aib][hTyr])) yielded an IC50 of 0.432 nM.
Work on `CC(=O)NCCOc1ccc(C[C@@H]2NC(=O)[C@H](CCc3ccc(O)cc3)NC(=O)[C@@H](C)NC(=O)[C@H](CO)NC(=O)[C@H](Cc3c[nH]c4ccccc34)NC(=O)[C@H](Cc3ccc(-c4ccc(C(=O)O)cc4)cc3)NC(=O)CNC(=O)[C@@H](C)N(C)C(=O)[C@H](CC(=O)O)NC(=O)[C@H]([C@@H](C)c3cccc4ccccc34)NC(=O)[C@@H]3C[C@@H](N)CN3C(=O)CNC(=O)[C@H](Cc3ccc(C(=O)O)cc3)NC(=O)[C@H](Cc3c[nH]c4ccccc34)NC2=O)cc1` [Example 128] (cyclo([AEF](Ac)W[Phe(4-COOH)]G[Pro(4R-NH2)][1Nal(3S-Me)]D[dNMeA]G[Bip(4'-COOH)]WS[dA][hTyr])) yielded an IC50 of 0.09 nM.
With `CC(=O)NCCOc1ccc(C[C@@H]2NC(=O)[C@H](CCc3ccc(O)cc3)NC(=O)[C@@H](C)NC(=O)[C@H](CN)NC(=O)[C@H](Cc3c[nH]c4ccccc34)NC(=O)[C@H](Cc3ccc(-c4ccc(C(=O)O)cc4)cc3)NC(=O)CNC(=O)[C@@H](C)N(C)C(=O)[C@H](CC(N)=O)NC(=O)[C@H]([C@@H](C)c3cccc4ccccc34)NC(=O)[C@@H]3C[C@@H](N)CN3C(=O)CNC(=O)[C@H](Cc3ccc(C(=O)O)cc3)NC(=O)[C@H](Cc3c[nH]c4ccccc34)NC2=O)cc1` [Example 129] (cyclo([AEF](Ac)W[Phe(4-COOH)]G[Pro(4R-NH2)][1Nal(3S-Me)]N[dNMeA]G[Bip(4'-COOH)]W[Dap][dA][hTyr])) the IC50 was 0.0828 nM.
Compound `CC(=O)NCCOc1ccc(C[C@@H]2NC(=O)[C@H](CCc3cncc(C#N)c3)NC(=O)C(C)(C)NC(=O)[C@H](CN)NC(=O)[C@H](Cc3cccc4ccccc34)NC(=O)[C@H](Cc3ccc(-c4ccc(C(=O)O)cc4)cc3)NC(=O)CNC(=O)[C@@H](C)N(C)C(=O)[C@H](CC(=O)O)NC(=O)[C@H]([C@@H](C)c3c[nH]c4cccc(Cl)c34)NC(=O)[C@@H]3C[C@@H](N)CN3C(=O)CNC(=O)[C@H](Cc3ccc(C(=O)O)cc3)NC(=O)[C@H](Cc3c[nH]c4ccccc34)NC2=O)cc1` [Example 130] (cyclo([AEF](Ac)W[Phe(4-COOH)]G[Pro(4R-NH2)][Trp(4-Cl)(βS-Me)]D[dNMeA]G[Bip(4'-COOH)][1Nal][Dap][Aib][h3Pal(5-CN)])) has an IC50 of 0.114 nM.
